Laboratory results from ChEMBL document CHEMBL3991601, “The target landscape of clinical kinase drugs” (Science, 2017).
Calls of active or inactive are those of the source. Rule as the data show it, for most assays here: actives have a measured Kd and inactives only a lower limit.

What was measured:
[1] = molecular target: Serine/threonine-protein kinase PAK 4 (Homo sapiens, UniProt O96013)
[2] = molecular target: Protein kinase C alpha type (Homo sapiens, UniProt P17252)
[3] = molecular target: T1, Peroxisomal acyl-coenzyme A oxidase 3 (Homo sapiens, UniProt O15254)
T1 sequence (O15254 whole entry): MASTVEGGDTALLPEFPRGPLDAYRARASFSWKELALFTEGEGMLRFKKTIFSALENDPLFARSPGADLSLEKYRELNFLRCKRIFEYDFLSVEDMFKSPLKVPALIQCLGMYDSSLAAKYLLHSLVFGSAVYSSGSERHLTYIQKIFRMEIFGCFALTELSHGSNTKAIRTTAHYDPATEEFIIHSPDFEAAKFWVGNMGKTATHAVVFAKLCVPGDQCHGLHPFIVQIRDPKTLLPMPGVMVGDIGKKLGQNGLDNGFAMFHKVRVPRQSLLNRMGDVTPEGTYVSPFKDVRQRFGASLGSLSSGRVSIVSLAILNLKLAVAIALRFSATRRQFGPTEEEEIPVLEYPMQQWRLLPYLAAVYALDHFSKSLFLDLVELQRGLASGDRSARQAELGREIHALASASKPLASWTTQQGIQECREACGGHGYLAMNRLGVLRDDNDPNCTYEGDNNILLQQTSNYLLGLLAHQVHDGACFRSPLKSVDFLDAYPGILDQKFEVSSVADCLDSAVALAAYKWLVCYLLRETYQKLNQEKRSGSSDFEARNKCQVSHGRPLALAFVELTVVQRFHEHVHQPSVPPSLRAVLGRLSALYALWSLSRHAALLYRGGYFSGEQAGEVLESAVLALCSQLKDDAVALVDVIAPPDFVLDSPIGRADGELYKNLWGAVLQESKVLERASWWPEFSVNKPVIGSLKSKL

[4] = molecular target: Mitotic checkpoint serine/threonine-protein kinase BUB1 (Homo sapiens, UniProt O43683)
Mitotic checkpoint serine/threonine-protein kinase BUB1, sequence (O43683 whole entry): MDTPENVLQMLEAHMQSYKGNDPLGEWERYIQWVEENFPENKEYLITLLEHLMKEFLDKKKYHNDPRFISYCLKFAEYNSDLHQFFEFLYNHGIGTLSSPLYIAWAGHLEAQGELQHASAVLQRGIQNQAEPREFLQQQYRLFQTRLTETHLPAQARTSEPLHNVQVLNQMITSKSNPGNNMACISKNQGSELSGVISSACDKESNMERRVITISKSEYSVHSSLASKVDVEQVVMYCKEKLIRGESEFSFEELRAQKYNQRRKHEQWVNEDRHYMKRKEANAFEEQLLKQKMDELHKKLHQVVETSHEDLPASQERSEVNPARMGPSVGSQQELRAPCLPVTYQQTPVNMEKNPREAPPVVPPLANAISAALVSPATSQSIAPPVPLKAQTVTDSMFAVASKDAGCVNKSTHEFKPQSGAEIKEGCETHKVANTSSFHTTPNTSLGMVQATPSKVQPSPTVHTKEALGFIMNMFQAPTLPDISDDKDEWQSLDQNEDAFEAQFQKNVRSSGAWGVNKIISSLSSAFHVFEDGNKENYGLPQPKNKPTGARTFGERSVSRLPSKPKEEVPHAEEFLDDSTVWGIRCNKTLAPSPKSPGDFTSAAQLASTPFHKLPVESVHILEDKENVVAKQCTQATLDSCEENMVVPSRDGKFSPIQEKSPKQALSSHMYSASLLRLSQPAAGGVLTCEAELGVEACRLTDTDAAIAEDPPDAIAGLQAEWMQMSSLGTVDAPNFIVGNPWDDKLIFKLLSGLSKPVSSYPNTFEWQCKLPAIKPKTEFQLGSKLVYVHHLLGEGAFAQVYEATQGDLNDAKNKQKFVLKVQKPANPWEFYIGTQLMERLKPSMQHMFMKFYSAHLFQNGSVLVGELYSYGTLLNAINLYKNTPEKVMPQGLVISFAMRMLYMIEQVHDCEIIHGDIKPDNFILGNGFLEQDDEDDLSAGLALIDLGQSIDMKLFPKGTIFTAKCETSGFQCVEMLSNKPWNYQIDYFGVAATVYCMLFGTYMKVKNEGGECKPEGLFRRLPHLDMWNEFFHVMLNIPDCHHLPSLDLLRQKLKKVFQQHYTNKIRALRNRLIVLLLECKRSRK

[5] = molecular target: T2, Probable ATP-dependent RNA helicase DDX6 (Homo sapiens, UniProt P26196)
T2 sequence (P26196 whole entry): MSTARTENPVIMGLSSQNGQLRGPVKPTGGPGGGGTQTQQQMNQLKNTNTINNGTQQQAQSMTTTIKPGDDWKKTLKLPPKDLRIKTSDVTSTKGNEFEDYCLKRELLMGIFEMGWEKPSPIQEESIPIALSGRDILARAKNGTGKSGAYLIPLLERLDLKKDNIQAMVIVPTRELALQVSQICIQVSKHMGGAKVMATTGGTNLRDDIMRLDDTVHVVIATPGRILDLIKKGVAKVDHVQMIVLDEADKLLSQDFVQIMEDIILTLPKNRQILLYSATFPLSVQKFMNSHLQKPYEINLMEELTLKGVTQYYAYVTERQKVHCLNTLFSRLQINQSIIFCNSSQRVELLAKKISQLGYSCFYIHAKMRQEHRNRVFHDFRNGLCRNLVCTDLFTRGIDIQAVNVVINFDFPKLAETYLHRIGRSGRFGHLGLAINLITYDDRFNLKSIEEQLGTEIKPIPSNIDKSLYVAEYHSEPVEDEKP

[6] = molecular target: Insulin-like growth factor 1 receptor (Homo sapiens, UniProt P08069)
Insulin-like growth factor 1 receptor, sequence (P08069 31-736 limits assumed): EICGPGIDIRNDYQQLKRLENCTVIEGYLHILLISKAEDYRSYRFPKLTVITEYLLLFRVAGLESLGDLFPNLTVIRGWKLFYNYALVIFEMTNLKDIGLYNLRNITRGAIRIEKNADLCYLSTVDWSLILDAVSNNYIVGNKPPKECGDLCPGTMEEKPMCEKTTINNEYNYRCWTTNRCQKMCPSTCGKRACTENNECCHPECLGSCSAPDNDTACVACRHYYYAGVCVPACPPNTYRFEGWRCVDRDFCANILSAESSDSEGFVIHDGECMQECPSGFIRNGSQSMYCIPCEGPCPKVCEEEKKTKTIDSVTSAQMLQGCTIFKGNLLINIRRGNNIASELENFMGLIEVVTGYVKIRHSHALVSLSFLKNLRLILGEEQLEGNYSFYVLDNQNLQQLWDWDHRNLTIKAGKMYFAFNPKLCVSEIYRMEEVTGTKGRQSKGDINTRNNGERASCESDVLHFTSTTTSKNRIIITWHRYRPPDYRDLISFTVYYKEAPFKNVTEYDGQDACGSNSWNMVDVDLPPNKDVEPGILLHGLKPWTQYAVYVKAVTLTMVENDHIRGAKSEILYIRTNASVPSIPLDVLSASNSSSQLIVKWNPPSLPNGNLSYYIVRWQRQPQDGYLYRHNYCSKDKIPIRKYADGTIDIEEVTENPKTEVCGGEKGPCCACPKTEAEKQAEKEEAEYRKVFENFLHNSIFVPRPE
Insulin-like growth factor 1 receptor, sequence (P08069 741-1367 limits assumed): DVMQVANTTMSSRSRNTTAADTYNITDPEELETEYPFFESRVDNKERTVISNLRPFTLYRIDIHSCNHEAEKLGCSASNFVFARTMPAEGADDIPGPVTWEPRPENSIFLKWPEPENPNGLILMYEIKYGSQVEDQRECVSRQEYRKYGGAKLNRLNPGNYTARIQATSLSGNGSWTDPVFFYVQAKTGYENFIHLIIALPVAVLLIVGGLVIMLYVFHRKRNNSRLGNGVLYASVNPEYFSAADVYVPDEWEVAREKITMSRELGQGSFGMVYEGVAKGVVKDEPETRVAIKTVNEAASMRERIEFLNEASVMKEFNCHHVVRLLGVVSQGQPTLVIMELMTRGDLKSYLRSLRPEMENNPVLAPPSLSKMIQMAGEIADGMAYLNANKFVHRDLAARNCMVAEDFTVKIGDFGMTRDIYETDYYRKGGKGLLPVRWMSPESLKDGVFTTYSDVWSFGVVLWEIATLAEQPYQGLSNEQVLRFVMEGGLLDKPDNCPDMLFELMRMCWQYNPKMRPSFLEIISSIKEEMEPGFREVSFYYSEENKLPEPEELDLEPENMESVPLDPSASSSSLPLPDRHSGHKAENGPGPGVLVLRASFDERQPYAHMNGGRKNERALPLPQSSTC

[7] = molecular target: Tyrosine-protein kinase SYK (Homo sapiens, UniProt P43405)
LIM domain kinase 1 = LIM domain kinase 1 (Homo sapiens, UniProt P53667)
LIM domain kinase 1, sequence (P53667 whole entry, the tested form may be a part): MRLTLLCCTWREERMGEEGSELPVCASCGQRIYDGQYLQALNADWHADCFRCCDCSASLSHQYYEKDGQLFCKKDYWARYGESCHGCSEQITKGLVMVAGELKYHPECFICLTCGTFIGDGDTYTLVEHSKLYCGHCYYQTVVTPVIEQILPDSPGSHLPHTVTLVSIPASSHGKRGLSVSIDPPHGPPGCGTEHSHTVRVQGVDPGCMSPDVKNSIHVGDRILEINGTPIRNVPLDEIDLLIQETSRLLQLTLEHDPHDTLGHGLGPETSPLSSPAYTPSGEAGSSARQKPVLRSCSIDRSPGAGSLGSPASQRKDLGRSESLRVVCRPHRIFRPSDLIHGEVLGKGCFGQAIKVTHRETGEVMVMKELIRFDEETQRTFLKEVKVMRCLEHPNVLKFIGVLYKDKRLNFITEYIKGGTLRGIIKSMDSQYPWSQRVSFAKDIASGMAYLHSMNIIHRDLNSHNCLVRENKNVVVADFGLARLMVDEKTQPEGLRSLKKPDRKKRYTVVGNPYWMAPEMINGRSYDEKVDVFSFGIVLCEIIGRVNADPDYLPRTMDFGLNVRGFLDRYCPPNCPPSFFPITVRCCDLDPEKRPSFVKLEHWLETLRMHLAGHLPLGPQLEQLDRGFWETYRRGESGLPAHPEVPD

[8] = molecular target: Serine/threonine-protein kinase N1 (Homo sapiens, UniProt Q16512)
[9] = molecular target: T3, Serine/threonine-protein kinase TAO3 (Homo sapiens, UniProt Q9H2K8)
T3 sequence (Q9H2K8 whole entry): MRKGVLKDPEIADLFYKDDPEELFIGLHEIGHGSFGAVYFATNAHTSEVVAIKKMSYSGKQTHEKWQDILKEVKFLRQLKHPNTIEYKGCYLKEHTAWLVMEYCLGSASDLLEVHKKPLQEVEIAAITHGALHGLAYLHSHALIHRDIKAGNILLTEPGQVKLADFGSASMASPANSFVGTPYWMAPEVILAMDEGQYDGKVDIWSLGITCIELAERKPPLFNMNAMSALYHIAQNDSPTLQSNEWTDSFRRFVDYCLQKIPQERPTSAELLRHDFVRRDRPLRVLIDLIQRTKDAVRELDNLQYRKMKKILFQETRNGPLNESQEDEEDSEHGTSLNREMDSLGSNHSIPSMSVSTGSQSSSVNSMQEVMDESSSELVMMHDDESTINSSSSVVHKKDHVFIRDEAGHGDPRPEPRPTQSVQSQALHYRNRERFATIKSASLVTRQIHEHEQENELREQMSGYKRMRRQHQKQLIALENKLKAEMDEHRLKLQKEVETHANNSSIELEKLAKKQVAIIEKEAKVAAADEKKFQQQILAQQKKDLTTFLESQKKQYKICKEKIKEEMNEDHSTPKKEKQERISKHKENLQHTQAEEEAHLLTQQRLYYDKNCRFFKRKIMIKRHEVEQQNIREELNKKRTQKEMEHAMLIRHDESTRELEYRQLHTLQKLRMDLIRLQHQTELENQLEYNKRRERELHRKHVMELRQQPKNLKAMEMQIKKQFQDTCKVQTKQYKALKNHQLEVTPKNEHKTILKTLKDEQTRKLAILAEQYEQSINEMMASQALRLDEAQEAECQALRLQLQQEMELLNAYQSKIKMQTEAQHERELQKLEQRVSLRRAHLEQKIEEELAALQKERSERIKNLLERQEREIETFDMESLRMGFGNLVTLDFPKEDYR

[10] = molecular target: Elongation factor Tu, mitochondrial (Homo sapiens, UniProt P49411)
Also: in the data inactive means no Kd found up to 30 µM.

Serine/threonine-protein kinase PAK 4, sequence (O96013 whole entry): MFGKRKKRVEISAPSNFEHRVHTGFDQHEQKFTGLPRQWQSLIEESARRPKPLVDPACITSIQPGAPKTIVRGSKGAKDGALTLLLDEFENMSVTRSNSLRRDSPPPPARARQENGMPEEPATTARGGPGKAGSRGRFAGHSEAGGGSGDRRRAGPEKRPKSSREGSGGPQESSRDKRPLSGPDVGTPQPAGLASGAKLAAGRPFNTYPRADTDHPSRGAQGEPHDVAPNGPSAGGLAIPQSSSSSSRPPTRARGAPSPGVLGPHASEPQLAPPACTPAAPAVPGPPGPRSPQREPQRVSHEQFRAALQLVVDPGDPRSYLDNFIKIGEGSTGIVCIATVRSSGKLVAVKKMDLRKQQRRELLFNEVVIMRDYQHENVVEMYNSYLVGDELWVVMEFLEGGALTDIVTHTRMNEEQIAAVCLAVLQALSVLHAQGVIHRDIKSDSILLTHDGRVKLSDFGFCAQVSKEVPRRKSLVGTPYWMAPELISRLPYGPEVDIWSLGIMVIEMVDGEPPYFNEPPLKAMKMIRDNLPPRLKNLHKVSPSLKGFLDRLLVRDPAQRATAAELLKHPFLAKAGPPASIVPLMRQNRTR

Row | SMILES | Kd [1] | Kd [2] | Kd [3] | Kd [4] | Kd [5] | Kd [6] | Kd [7] | Kd (LIM domain kinase 1) | Kd [8] | Kd [9] | Kd [10]
1 | CNS(=O)(=O)Nc1nccc(Cc2c(C)c3ccc(Oc4ncccn4)cc3oc2=O)c1F [AVUTOMETINIB] | > 30 µM (inactive) | > 30 µM (inactive) | > 30 µM (inactive) | > 30 µM (inactive) | > 30 µM (inactive) | > 30 µM (inactive) | > 30 µM (inactive) | > 30 µM (inactive) | > 30 µM (inactive) | > 30 µM (inactive) | > 30 µM (inactive)
2 | O=C(Nc1cccc(Cl)c1)Nc1ncc(CCNc2ncnc3ccsc23)s1 [SNS-314] | – | > 30 µM (inactive) | 0.026 µM (active) | – | > 30 µM (inactive) | – | – | – | > 30 µM (inactive) | > 30 µM (inactive) | > 30 µM (inactive)
3 | COCCNCc1ccc(-c2cc3nccc(Oc4ccc(NC(=S)NC(=O)Cc5ccc(F)cc5)cc4F)c3s2)nc1 [GLESATINIB] | > 30 µM (inactive) | > 30 µM (inactive) | > 30 µM (inactive) | > 30 µM (inactive) | > 30 µM (inactive) | > 30 µM (inactive) | 2.68 µM (active) | > 30 µM (inactive) | > 30 µM (inactive) | > 30 µM (inactive) | > 30 µM (inactive)
4 | Cn1ncc(Cl)c1-c1cc(C(=O)N[C@H](CN)Cc2cccc(F)c2)sc1Cl [AFURESERTIB] | > 30 µM (inactive) | 21.4 µM (active) | > 30 µM (inactive) | > 30 µM (inactive) | – | > 30 µM (inactive) | > 30 µM (inactive) | > 30 µM (inactive) | 0.88 µM (active) | > 30 µM (inactive) | > 30 µM (inactive)
5 | Cc1nc(N)sc1-c1ccnc(Nc2ccc(N3CCOCC3)cc2)n1 [CYC-116] | – | > 30 µM (inactive) | > 30 µM (inactive) | 0.111 µM (active) | > 30 µM (inactive) | – | – | 0.984 µM (active) | 13.2 µM (active) | – | > 30 µM (inactive)
6 | O=C(O)[C@]1(Cc2cccc(Nc3nccs3)n2)CC[C@@H](Oc2cccc(Cl)c2F)CC1 [MK-5108] | > 30 µM (inactive) | > 30 µM (inactive) | > 30 µM (inactive) | > 30 µM (inactive) | > 30 µM (inactive) | > 30 µM (inactive) | > 30 µM (inactive) | 5.09 µM (active) | > 30 µM (inactive) | > 30 µM (inactive) | > 30 µM (inactive)

Further lines, results first:

Row | Kd [1] | Kd [2] | Kd [3] | Kd [4] | Kd [5] | Kd [6] | Kd [7] | Kd (LIM domain kinase 1) | Kd [8] | Kd [9] | Kd [10] | SMILES
7 | > 30 µM (inactive) | > 30 µM (inactive) | > 30 µM (inactive) | > 30 µM (inactive) | > 30 µM (inactive) | > 30 µM (inactive) | > 30 µM (inactive) | > 30 µM (inactive) | > 30 µM (inactive) | > 30 µM (inactive) | > 30 µM (inactive) | CCCS(=O)(=O)Nc1ccc(F)c(C(=O)c2c[nH]c3ncc(-c4ccc(Cl)cc4)cc23)c1F [VEMURAFENIB]
8 | > 30 µM (inactive) | > 30 µM (inactive) | > 30 µM (inactive) | > 30 µM (inactive) | > 30 µM (inactive) | > 30 µM (inactive) | > 30 µM (inactive) | > 30 µM (inactive) | > 30 µM (inactive) | > 30 µM (inactive) | > 30 µM (inactive) | CC[C@@H]1C(=O)N(C)c2cnc(Nc3ccc(C(=O)N[C@H]4CC[C@H](N5CCN(CC6CC6)CC5)CC4)cc3OC)nc2N1C(C)C [VOLASERTIB]
9 | – | > 30 µM (inactive) | > 30 µM (inactive) | > 30 µM (inactive) | > 30 µM (inactive) | – | > 30 µM (inactive) | – | > 30 µM (inactive) | > 30 µM (inactive) | > 30 µM (inactive) | OCCn1cc(-c2cnc3nnn(Cc4ccc5ncccc5c4)c3n2)cn1 [PF-04217903]
10 | > 30 µM (inactive) | > 30 µM (inactive) | > 30 µM (inactive) | > 30 µM (inactive) | – | > 30 µM (inactive) | > 30 µM (inactive) | > 30 µM (inactive) | > 30 µM (inactive) | > 30 µM (inactive) | > 30 µM (inactive) | CNC(=O)c1ccc(C)c(-n2c(C)cc(OCc3ccc(F)cc3F)c(Br)c2=O)c1 [PH-797804]
